Measured values taken from patent USRE29244E, “Coccidiostats” (priority 1976, dated 1977).
Like-named read-outs stand apart in the source and are kept apart here.

What was measured:
gram-negative bacteria = assay: In vitro antibacterial activity; type: cell-based
[1] = Continuous feeding of chicks for nine weeks; type: in vivo, chicken
From the text: At 0.025%, growth is reduced, feed conversion impaired and 25% mortality occurs.

gram-positive bacteria = assay: In vitro antibacterial activity; type: cell-based
[2] = system: mixtures of E. tenella, E. necatrix, E. acervulina, E. brunetti, E. maxima, E. mivati; assay: Multiple Eimeria infections in chickens; type: in vivo, Eimeria (mixture; in chickens); settings: for Average degree of infection: <2.5 significant; for Weight gain: uninfected control 100
Procedure: Test method.--This test utilizes ten chickens per drug group. Ten chickens are employed as a weight control and ten chickens as an infected control. The drug is given 48 hours in advance of the infection. One gm. of the test drug is mixed in a mechanical mixer with a sufficient amount of chicken feed to result in the desired dosage. The infection consists of approximately 200,000 oocysts given orally by pipette. The tests lasts for eleven days and then the surviving birds are autopsied and examined for gross lesions in the ceca. The test birds are rated according to the number of survivors and the number of cecal lesions. The results are expressed as average degree of infection (A.D.I.). An average degree of infection of less than 2.5 is considered significant.
(B) Multiple Eimeria infections in chickens
Test method.--The test method is the same as for Eimeria tenella. The multiple Eimeria infections tested herein are mixtures of E. tenella, E. necatrix, E. acervulina, E. brunetti, E. maxima, E. mivati infections.

Gram-negatives = assay: Antimicrobial spectrum, plate assay; type: cell-based; settings: Gram-negatives: Pseudomonas acruginosa, Aerobacillus polymyxa, Escherichia coli
From the text: (§1) The following table summarizes the antimicrobial spectrum of antibiotic X-537A:
(§2) Antimicrobial spectrum of antibiotic X-537A
(§3) Test organism: Plate units per mg.
*These were Pseudomonas acruginosa, Aerobacillus polymyxa and Escherichia
(§4) The antibiotic can be prepared by growing the Streptomyces organisms in an aerated submerged culture. This can be done in either a shaken flask or in 50-1,000 gallon stainless steel and iron fermentation tanks. The broths are adjusted to a pH which is about neutral, i.e., 6.5-7.5 prior to be sterilized and are then incubated at slightly elevated temperatures, e.g., about 27° to 30° C., after being inoculated with spore suspensions or vegetative growth. The reaction broth is then filtered and the active material is extracted with a suitable solvent, preferably methanol, n-butanol or butyl acetate. The antibiotic activity is followed by cup-plate agar diffusion assay in which the test organism Bacillus E is employed. In general, the concentration of antibiotic required to produce an inhibition zone of 20-22 mm. in diameter with any of the test organisms is considered to be 1 unit per ml. Whole broths are diluted for assay in 1% phosphate buffer, pH 6.0.

Toxic dosage in mice = type: in vivo; settings: for MTD: mouse, in vivo, read-out: Tolerated dose
From the text: The toxic dosage of the antibiotic as tested in mice and designated as the lethal dose is as follows: […]

mycobacteria = assay: In vitro antibacterial activity; type: cell-based
coccidiosis = assay: Control of coccidiosis by medicated feed (general statements); type: in vivo, poultry (turkeys, chickens)
From the text: Thus, the compositions of this invention not only control coccidiosis, but also, aid in improving the efficiency of conversion of feed to weight gains.
Thus, for example, a feed premix or complete feed contains sufficient active ingredient to provide from about 0.001% to about 0.0125% by weight of the daily feed consumption. Preferably, about 0.00312% to 0.00625% by weight is used. Generally, about 0.005% to about 0.006% of the active ingredient is sufficient for the purpose of controlling and combating coccidiosis.
Even though amounts over 0.00625% are efficacious for combating coccidiosis, this amount is the preferred upper range because of economics, i.e., the cost per unit of effectiveness is lowest within this range. Amounts lower than 0.001% and in some cases lower than 0.003% are not effective for combating coccidiosis. Preferred is a lower limit of 0.00312% because this insures efficaciousness. The most preferred amount, i.e., about 0.005% to about 0.006% by weight of the poultry daily feed consumption is particularly efficacious since it achieves maximum effect with minimum dose. The range of the weight amounts of active antibiotic in the dried unfiltered broth solids which are efficacious for combating coccidiosis is the same as for the crystalline material or its salts. For example, when administered in feed to chicks so as to contain a dosage of 0.003% of active ingredient, the crude dried unfiltered broth results in an average degree of infection of 1.4 while at the same dosage, the sodium salt of the crystalline antibiotic results in an average degree of infection of 1.7. At a dosage equivalent to a concentration of active ingredient of 0.006%, the dried material results in an average degree of infection of 0.0 while the sodium salt of the crystalline antibiotic results in an average degree of infection of 0.2.

Sarcina lutea = assay: Antimicrobial spectrum, plate assay; type: cell-based
Procedure: as §1, §2, §3, §4

Bacillus cereus = assay: Antimicrobial spectrum, plate assay; type: cell-based
Procedure: as §1, §2, §3, §4

Mycobacterium phlei = assay: Antimicrobial spectrum, plate assay; type: cell-based
Procedure: as §1, §2, §3, §4

[3] = system: Scopulariopsis brevicaulis; assay: Antimicrobial spectrum, plate assay; type: cell-based
Procedure: as §1, §2, §3, §4

Bacillus E = assay: Antimicrobial spectrum, plate assay; type: cell-based
Procedure: as §1, §2, §3, §4

Bacillus simplex = assay: Antimicrobial spectrum, plate assay; type: cell-based
Procedure: as §1, §2, §3, §4

Saccharomyces cerevisiac = assay: Antimicrobial spectrum, plate assay; type: cell-based
Procedure: as §1, §2, §3, §4

Bacillus mesentericus = assay: Antimicrobial spectrum, plate assay; type: cell-based
Procedure: as §1, §2, §3, §4

Staphylococcus aureus = assay: Antimicrobial spectrum, plate assay; type: cell-based
Procedure: as §1, §2, §3, §4

Corynebacterium simplex = assay: Antimicrobial spectrum, plate assay; type: cell-based
Procedure: as §1, §2, §3, §4

**Q.** Which “Activity in vitro against gram-negative bacteria” value (gram-negative bacteria) does the source give for CCC(C(=O)C(C)C(O)C(C)CCc1ccc(C)c(O)c1C(=O)O)C1OC(CC)(C2CCC(O)(CC)C(C)O2)CC1C (stereo not shown) [antibiotic X-537A] here?
**A.** inactive

**Q.** What about the Feed conversion ([1]; 0.025% in feed) of the same molecule?
**A.** impaired

**Q.** And the Growth ([1]; 0.025% in feed)?
**A.** reduced

**Q.** What about the mortality at 1512 h ([1]; chicken, in vivo, po, 0.025% in feed) of the same molecule?
**A.** 25%

**Q.** And the “Adverse effects on performance (growth, feed efficiency and mortality)” value ([1]; up to 0.0125% by weight in feed, nine weeks)?
**A.** no adverse effects

**Q.** And the “Activity in vitro against gram-positive bacteria” value (gram-positive bacteria)?
**A.** active

**Q.** What about the Percent mortality ([2]; 0.00312% in feed) of the same molecule?
**A.** 0%

**Q.** And the “Average degree of infection” value ([2]; 0.00312% in feed)?
**A.** 0.9

**Q.** And the Weight gain ([2]; 0.00312% in feed)?
**A.** 105%

**Q.** What about the Percent mortality ([2]; 0.00625% in feed) of the same molecule?
**A.** 0%

**Q.** And the “Average degree of infection” value ([2]; 0.00625% in feed)?
**A.** 0.0

**Q.** What about the Weight gain ([2]; 0.00625% in feed) of the same molecule?
**A.** 108%

**Q.** What about the “Efficiency of conversion of feed to weight gain” value ([2]; chickens) of the same molecule?
**A.** greater than expected

**Q.** What about the “Effectiveness in treating multiple coccidiosis infections” value ([2]; in vivo) of the same molecule?
**A.** effective

**Q.** What about the Antimicrobial activity (Gram-negatives) of the same molecule?
**A.** 0 Plate units per mg.

**Q.** And the Lethal dose (Toxic dosage in mice; intraperitoneal)?
**A.** 62.5 mg/kg

**Q.** And the MTD (Toxic dosage in mice; ip, intraperitoneal)?
**A.** 50 mg/kg

**Q.** What about the MTD (Toxic dosage in mice; oral) of the same molecule?
**A.** 62.5 mg/kg

**Q.** And the MTD (Toxic dosage in mice; sc, subcutaneous)?
**A.** 62.5 mg/kg

**Q.** What about the Lethal dose (Toxic dosage in mice; oral) of the same molecule?
**A.** 125 mg/kg

**Q.** And the Lethal dose (Toxic dosage in mice; subcutaneous)?
**A.** 125 mg/kg

**Q.** And the “Activity in vitro against mycobacteria” value (mycobacteria)?
**A.** active

**Q.** What about the Effectiveness against coccidiosis (coccidiosis; amounts greater than 0.0125% of feed) of the same molecule?
**A.** effective against coccidiosis, do not generally show improved results over 0.0125%

**Q.** What about the “Effect on growth, feed efficiency and mortality” value (coccidiosis; amounts greater than 0.0125% of feed, in some cases) of the same molecule?
**A.** may adversely affect the growth, feed efficiency and mortality

**Q.** What about the Effectiveness against coccidiosis (coccidiosis; amounts lower than 0.001% and in some cases lower than 0.003% of feed) of the same molecule?
**A.** not effective

**Q.** And the “Toxicity / untoward side effects” value (coccidiosis; at dosages necessary to control coccidiosis)?
**A.** not toxic and shows no untoward side effects

**Q.** And the “Weight of treated fowl compared to controls” value (coccidiosis; oral, as component of feed)?
**A.** either maintain their weight or actually gain weight

**Q.** And the Control of coccidiosis (coccidiosis; oral, as component of feed, turkeys and chickens)?
**A.** effectively controls the disease

**Q.** And the Antimicrobial activity (Sarcina lutea)?
**A.** 500 Plate units per mg.

**Q.** What about the Antimicrobial activity (Bacillus cereus) of the same molecule?
**A.** 120 Plate units per mg.

**Q.** And the Antimicrobial activity (Mycobacterium phlei)?
**A.** 20 Plate units per mg.

**Q.** And the Antimicrobial activity [3]?
**A.** 0 Plate units per mg.

**Q.** What about the Antimicrobial activity (Bacillus E; Bacillus E) of the same molecule?
**A.** 800 Plate units per mg.

**Q.** And the “Bacillus E assay” value (Bacillus E; crystalline material from petroleum ether (contained sodium))?
**A.** 500 E units per mg.

**Q.** And the “Bacillus E assay” value (Bacillus E; free acid recrystallized from ethanol)?
**A.** 800 E units per mg.

**Q.** What about the Antimicrobial activity (Bacillus simplex) of the same molecule?
**A.** 20 Plate units per mg.

**Q.** What about the Antimicrobial activity (Saccharomyces cerevisiac) of the same molecule?
**A.** 0 Plate units per mg.

**Q.** What about the Antimicrobial activity (Bacillus mesentericus) of the same molecule?
**A.** 50 Plate units per mg.

**Q.** What about the Antimicrobial activity (Staphylococcus aureus) of the same molecule?
**A.** 20 Plate units per mg.

**Q.** What about the Antimicrobial activity (Corynebacterium simplex) of the same molecule?
**A.** 20 Plate units per mg.
